Assay results published in patent US9334285B2, “Aldosterone synthase inhibitors” (Boehringer Ingelheim International GmbH, priority 2014, dated 2016).
pIC50: −log10 of the molar value. Read-outs that look alike come from different tables or passages of the source.

Key:
CYP19A1 = target: T1, CYP19A1 (Homo sapiens, UniProt P11511); assay: Inhibition of CYP19A1 (Kragie et al.); type: biochemical
T1 sequence (P11511 1-503): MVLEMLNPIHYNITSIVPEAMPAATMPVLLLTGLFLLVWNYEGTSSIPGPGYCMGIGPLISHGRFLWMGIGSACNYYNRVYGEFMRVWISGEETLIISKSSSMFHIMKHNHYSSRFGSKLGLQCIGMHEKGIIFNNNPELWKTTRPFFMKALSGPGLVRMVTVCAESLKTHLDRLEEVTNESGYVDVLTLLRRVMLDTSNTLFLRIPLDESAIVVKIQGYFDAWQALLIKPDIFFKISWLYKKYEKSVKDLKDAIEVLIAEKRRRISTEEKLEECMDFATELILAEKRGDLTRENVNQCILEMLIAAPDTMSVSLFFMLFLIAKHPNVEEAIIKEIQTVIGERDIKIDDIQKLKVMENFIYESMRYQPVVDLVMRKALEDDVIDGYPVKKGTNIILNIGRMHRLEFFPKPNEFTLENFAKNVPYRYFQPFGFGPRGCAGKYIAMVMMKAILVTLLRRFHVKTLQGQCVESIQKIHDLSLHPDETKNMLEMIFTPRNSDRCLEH

[1] = target: cortisol synthase (CYP11B1) (Macaca fascicularis, UniProt A0A2K5ULY1); assay: Inhibition of cortisol synthesis, cynomolgus adrenal mitochondria, 11-deoxycortisol as substrate; type: biochemical, cynomolgus monkey; conditions: 150 units of CYP11B1, 11-deoxycortisol as substrate
Experimental: The aldosterone synthase and cortisol synthase inhibition assays employ cynomolgus adrenal gland mitochondria as the source of aldosterone synthase (CYP11B2) and cortisol synthase (CYP11B1). Mitochondria are prepared from frozen cynomolgus monkey adrenal glands according to Method A described in by J. D. McGarry et al. (Biochem. J., 1983, 214, 21-28), with a final resuspension in the AT buffer described in R. Yamaguchi et al. (Cell Death and Differentiation, 2007, 14, 616-624), frozen as aliquots in liquid nitrogen and stored at −80° C. until use. One unit of CYP11B2 and CYP11B1 activity in these preparations is defined as the amount of enzyme that generates 1 pmol of product in one hour under the conditions described.
Assays are performed as for aldosterone synthase except for the use of 150 units of CYP11B1, 11-deoxycortisol as substrate and cortisol measured as product.

rhCYP17A1 = target: T2, rhCYP17A1 (Homo sapiens, UniProt P05093); assay: Inhibition of CYP17A1, progesterone to 17-α-hydroxyprogesterone, mass spectrometry; type: biochemical
T2 construct: purchased Cypex
T2 sequence (P05093 1-508): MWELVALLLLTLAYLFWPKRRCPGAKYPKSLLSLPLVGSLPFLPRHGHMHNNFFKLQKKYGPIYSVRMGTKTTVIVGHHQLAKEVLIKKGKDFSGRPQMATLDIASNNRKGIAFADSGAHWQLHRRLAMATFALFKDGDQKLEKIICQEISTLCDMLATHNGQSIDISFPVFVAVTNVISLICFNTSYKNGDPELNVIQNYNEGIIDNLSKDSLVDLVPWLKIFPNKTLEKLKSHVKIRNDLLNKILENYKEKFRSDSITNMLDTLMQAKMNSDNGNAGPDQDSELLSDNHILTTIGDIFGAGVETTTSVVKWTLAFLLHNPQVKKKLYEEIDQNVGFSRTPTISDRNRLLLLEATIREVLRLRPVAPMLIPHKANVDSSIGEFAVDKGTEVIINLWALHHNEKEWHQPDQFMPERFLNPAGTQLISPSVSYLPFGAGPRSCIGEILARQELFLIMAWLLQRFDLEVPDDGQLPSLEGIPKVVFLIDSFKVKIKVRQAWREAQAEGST
Experimental: Compounds of the invention may also be evaluated for inhibition of CYP17A1 via the following assay:
Reactions are started by the addition of NADPH to 1 mM and allowed to proceed for 15 minutes at 37° C. Reactions are terminated by the addition of 40 μL of MeCN containing an internal standard for mass spectrometry. The plates are centrifuged at 3000 rpm for 5 min and the reaction product 17-α-hydroxyprogesterone is quantified by mass spectrometry. To determine the assay blank value (0% activity), NADPH is omitted from some reactions.
(§1) Dose dependent inhibition is quantified by the inclusion of compound at various concentrations. Maximum activity (100%) is defined by reactions containing NADPH, but without compound.

[2] = target: T3, aldosterone synthase (CYP11B2) (Macaca fascicularis, UniProt A0A2K5UPL9); assay: Inhibition of aldosterone synthase, cynomolgus adrenal mitochondria, aldosterone quantified by mass spectrometry; type: biochemical, cynomolgus monkey; conditions: 2 μM corticosterone, 90 minutes at 37° C.
T3 construct: employ cynomolgus adrenal gland mitochondria as the source of aldosterone synthase (CYP11B2); from tissue; host or cells: cynomolgus monkey adrenal gland mitochondria
T3 sequence (A0A2K5UPL9 1-503): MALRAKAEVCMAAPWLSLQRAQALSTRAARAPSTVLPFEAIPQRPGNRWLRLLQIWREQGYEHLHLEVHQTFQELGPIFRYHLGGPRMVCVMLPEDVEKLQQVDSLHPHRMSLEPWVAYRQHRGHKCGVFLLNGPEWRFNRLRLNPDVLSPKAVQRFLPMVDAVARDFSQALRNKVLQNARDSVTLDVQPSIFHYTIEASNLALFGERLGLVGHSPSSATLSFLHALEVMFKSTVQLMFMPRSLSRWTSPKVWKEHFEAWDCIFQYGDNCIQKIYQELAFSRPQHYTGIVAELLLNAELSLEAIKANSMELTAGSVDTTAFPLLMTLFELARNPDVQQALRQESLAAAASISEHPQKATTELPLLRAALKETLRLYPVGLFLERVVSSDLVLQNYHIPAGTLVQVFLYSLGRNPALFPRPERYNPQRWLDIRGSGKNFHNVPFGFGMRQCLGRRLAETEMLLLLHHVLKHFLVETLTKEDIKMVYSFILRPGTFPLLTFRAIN
Experimental: The aldosterone synthase and cortisol synthase inhibition assays employ cynomolgus adrenal gland mitochondria as the source of aldosterone synthase (CYP11B2) and cortisol synthase (CYP11B1). […] One unit of CYP11B2 and CYP11B1 activity in these preparations is defined as the amount of enzyme that generates 1 pmol of product in one hour under the conditions described.
The compounds of the invention may be evaluated for aldosterone synthase inhibition by the following assay:
Assays are performed in 96-well format in a final volume of 60 microL/well, containing 100 mM potassium phosphate, pH 7.4, 1% (v/v) DMSO, and additionally, 2 μM of corticosterone and 50 units of CYP11B2 activity. Reactions are started by the addition of NADPH to 1 mM and allowed to proceed for 90 minutes at 37° C. Reactions are terminated by the addition of 60 μL of MeCN containing an internal standard for mass spectrometry. One hundred microliters are then transferred to a glass filter plate and centrifuged at 570×g for 5 minutes and the filtrate is collected. Reaction product aldosterone is quantified by mass spectrometry. To determine the assay blank value (0% activity), NADPH is omitted from some reactions.
as §1

[3] = cynomolgus adrenal mitochondria, read-out: Cortisol Inhibition IC50
[4] = rhCYP17A1, 150 nM progesterone, 15 minutes at 37° C., read-out: CYP17A1 IC50
[5] = Cortisol Inhibition IC50, cynomolgus adrenal mitochondria

| pIC50 (CYP19A1; read-out: CYP19A1 IC50) | pIC50 [1, 3] | pIC50 (rhCYP17A1; [4]) | pIC50 [2] | Compound | pIC50 [1, 5] | pIC50 (CYP19A1) | pIC50 (rhCYP17A1) |
| --- | --- | --- | --- | --- | --- | --- | --- |
| < 4.70 | < 4.52 | < 4.70 | 7.12 | CC1(CO)Cc2ncn(-c3ccc4c(c3)CCO4)c2C(=O)O1 (single isomer, unassigned) [Compound 42B, 3-(2,3-Dihydro-benzofuran-5-yl)-6-hydroxymethyl-6-methyl-6,7-dihydro-3H-pyrano[3,4-d]imidazol-4-one] | – | – | – |
| < 4.70 | 4.46 | < 4.70 | 6.80 | CC1Cc2ncn(-c3ccc(C#N)cc3)c2C(=O)O1 (single isomer, unassigned) [Compound 16B, 4[6-methyl-4-oxo-3H,4H,6H,7H-pyrano[3,4-d]imidazol-3-yl]benzonitrile] | – | – | – |
| < 4.70 | 5.47 | < 4.70 | 7.04 | CC1(C)Cc2ncn(-c3ccc(F)c(F)c3)c2C(=O)O1 [Compound 2, 3-(3,4-difluorophenyl)-6,6-dimethyl-3H,4H,6H,7H-pyrano[3,4-d]imidazol-4-one] | – | – | – |
| < 4.70 | 5.62 | < 4.70 | 7.49 | CC1(C)Cc2ncn(-c3ccc(Cl)cc3)c2C(=O)O1 [Compound 9, 3-(4-chlorophenyl)-6,6-dimethyl-3H,4H,6H,7H-pyrano[3,4-d]imidazol-4-one] | – | – | – |
| < 4.70 | 4.40 | < 4.70 | 6.96 | CN1C(=O)CCc2cc(-n3cnc4c3C(=O)OC(C)(C)C4)ccc21 [Compound 5, 6-{6,6-dimethyl-4-oxo-3H,4H,6H,7H-pyrano[3,4-d]imidazol-3-yl}-1-methyl-1,2,3,4-tetrahydroquinolin-2-one] | – | – | – |
| < 4.70 | 6.23 | < 4.70 | 8.31 | Cc1cc(-n2cnc3c2C(=O)OC(C)(C)C3)ccc1C#N [Compound 11, 4-{6,6-dimethyl-4-oxo-3H,4H,6H,7H-pyrano[3,4-d]imidazol-3-yl}-2-methylbenzonitrile] | – | – | – |
| < 4.70 | 4.62 | 4.82 | 7.15 | CC1(CO)Cc2ncn(-c3cccc(Cl)c3F)c2C(=O)O1 (single isomer, unassigned) [Compound 35A, 3-(3-chloro-2-fluorophenyl)-6-(hydroxymethyl)-6-methyl-3H,4H,6H,7H-pyrano[3,4-d]imidazol-4-one] | – | – | – |
| < 4.70 | 5.28 | < 4.70 | 7.51 | CC1(CO)Cc2ncn(-c3ccc(Cl)c(Cl)c3)c2C(=O)O1 (single isomer, unassigned) [Compound 30B, 3-(3,4-dichlorophenyl)-6-(hydroxymethyl)-6-methyl-3H,4H,6H,7H-pyrano[3,4-d]imidazol-4-one] | – | – | – |
| < 4.70 | 4.72 | < 4.70 | 6.92 | CC1(CO)Cc2ncn(-c3cccc(F)c3Cl)c2C(=O)O1 (single isomer, unassigned) [Compound 34B, 3-(2-chloro-3-fluorophenyl)-6-(hydroxymethyl)-6-methyl-3H,4H,6H,7H-pyrano[3,4-d]imidazol-4-one] | – | – | – |
| < 4.70 | 4.59 | < 4.70 | 7.00 | CC1Cc2ncn(-c3ccc(C#N)cc3)c2C(=O)O1 (single isomer, unassigned) [Compound 16A, 4[6-methyl-4-oxo-3H,4H,6H,7H-pyrano[3,4-d]imidazol-3-yl]benzonitrile] | – | – | – |
| < 4.70 | 5.06 | < 4.70 | 7.46 | CC1(C)Cc2ncn(-c3ccc(C#N)cc3)c2C(=O)O1 [Compound 3, 4-{6,6-dimethyl-4-oxo-3H,4H,6H,7H-pyrano[3,4-d]imidazol-3-yl}benzonitrile] | – | – | – |
| < 4.70 | 4.62 | < 4.70 | 6.68 | Cc1cc(C#N)ccc1-n1cnc2c1C(=O)OC(C)(CO)C2 (single isomer, unassigned) [Compound 31B, 4-[6-(hydroxymethyl)-6-methyl-4-oxo-3H,4H,6H,7H-pyrano[3,4-d]imidazol-3-yl]-3-methylbenzonitrile] | – | – | – |

| Compound | pIC50 (CYP19A1; read-out: CYP19A1 IC50) | pIC50 [1, 3] | pIC50 (rhCYP17A1; [4]) | pIC50 [2] | pIC50 [1, 5] | pIC50 (CYP19A1) | pIC50 (rhCYP17A1) |
| --- | --- | --- | --- | --- | --- | --- | --- |
| Cc1cc(C#N)ccc1-n1cnc2c1C(=O)OC(C)(C)C2 [Compound 13, 4-{6,6-dimethyl-4-oxo-3H,4H,6H,7H-pyrano[3,4-d]imidazol-3-yl}-3-methylbenzonitrile] | < 4.70 | – | < 4.70 | 8.20 | 5.66 | – | – |
| N#Cc1ccc(-n2cnc3c2C(=O)OC(CO)C3)cc1Cl (single isomer, unassigned) [Compound 33A, 2-chloro-4-[6-(hydroxymethyl)-4-oxo-3H,4H,6H,7H-pyrano[3,4-d]imidazol-3-yl]benzonitrile] | – | – | – | 7.05 | 4.35 | < 4.70 | < 4.70 |
